# According to patent US11542259B2, “Compounds for the treatment of kinase-dependent disorders” (Exelixis, Inc., priority 2018, dated 2023):
# Like-named read-outs stand apart in the source and are kept apart here.
# Experiment: Pharmacokinetic studies in male Sprague-Dawley rats
# Format: in vivo
# Conditions: rat; for clearance / half-life / Cmax: male, Sprague-Dawley, plasma; for half-life: read-out: t½
# Protocol: Pharmacokinetic properties of select compounds were assessed in male Sprague-Dawley rats.
# The non-GLP study was designed to investigate the pharmacokinetics of chosen compounds in plasma following an intravenous or oral dose administration to male Sprague Dawley rats. […]
# Animals in the PO group were fasted overnight prior to dose administration. Food was returned following the collection of the 4-hour blood sample. Water was not withheld.
# Immediately prior to dosing, the body weight of each animal was recorded. Doses (rounded to the nearest 0.001 mL) were calculated based on the pretreatment body weight (kg) and a dose volume of 2.5 mL/kg for intravenous administration and 5 mL/kg for oral administration. Intravenous formulations were administered via a jugular vein cannula. Immediately after dosing, the cannula was flushed with saline and the line was tied off. The oral dose was administered via a ball-tipped feeding needle. Dosing syringe volumes for administration were second-person verified prior to dosing and that volume along with the results for the concentration verification analysis were used to calculate the actual dose administered. Dosing syringes were weighed immediately prior to and immediately after dosing each animal as a gravimetric check.
# Serial blood samples (approximately 200 μL per sample) were collected from each animal at 0.083 (IV dosing only), 0.25, 0.5, 1, 2, 4, 6 (PO dosing only), 8, 24, 32, 48, and 72 hours after dosing. Blood samples were collected into tubes containing K2EDTA via the non-dosing jugular-vein cannula (JVC), which was flushed with an approximately equal volume of saline following each collection.
# Blood samples were stored on wet ice until processed to plasma by centrifugation (3500 rpm at 5° C. for 10 minutes) within 1 hour of collection. Plasma samples were transferred into matrix tubes and then stored in a −80° C. freezer.
# Plasma samples and dose formulation samples were analyzed for the compounds of interest using liquid chromatography-tandem mass spectrometry (LC-MS/MS) methods. Pharmacokinetic parameter estimates were calculated from the individual animal plasma concentration-time data using the actual dose based on the analysis of the dosing formulations, nominal sampling times (all collections were within an acceptable range of target), and non-compartmental methods. The concentration-time data were analyzed to fit either an intravenous-bolus (IV) plasma analysis model (201) or extra-vascular (P0) dosing plasma analysis model (200) using the software WinNonlin Phoenix version 6.3 (Pharsight). The single-dose pharmacokinetic parameters assessed include, as appropriate: Cmax (observed peak or maximum concentration); Tmax (observed time of peak concentration); T1/2 (terminal half-life); Vz (volume of distribution based on the terminal phase); Vss (volume of distribution at steady state); AUCINF (area under the concentration-time curve computed from time zero to infinity); AUClast (area under the concentration-time curve computed from time zero to the time of the last quantifiable concentration); C0 (back-extrapolated concentration at time zero); CL (total body clearance); Vz/F (volume of distribution for extravascular administration based on the terminal phase); CL/F (total body clearance for extravascular administration); F % (bioavailability); and MRTlast (mean residence time).
# Areas-under-the-plasma concentration-time curves (AUC) were estimated using the linear-log trapezoidal rule. The area through the time (Tlast) of the last observable concentration (Clast) is reported as AUClast. AUC extrapolated to infinity, (AUCINF) was estimated by adding AUClast and the ratio of Clast/λz, where λz is the terminal rate constant. Apparent terminal half-life (T1/2) was calculated as ln(2)/λz and determined using the slope of the log-linear terminal phase of the concentration-time curve, defined by a minimum of three plasma concentration-time points. […]
Cmax (PO (3 mg/kg)),half-life (PO (3 mg/kg)),clearance (IV (3 mg/kg)),half-life (IV (3 mg/kg)),Compound,other results
,,,,"COc1cc2nccc(Oc3ccc(NC(=O)C4(C(=O)Nc5ccc(F)cc5)CC4)cc3)c2cc1-c1ncc[nH]1 [Compound 191, 1-N′-(4-Fluorophenyl)-1-N-[4-[6-(1H-imidazol-2-yl)-7-methoxyquinolin-4-yl]oxyphenyl]cyclopropane-1,1-dicarboxamide]",clearance (IV (3.0 mg/kg)): 1.05 mL/min/kg; half-life (IV (3.0 mg/kg)): 9.9 h; Cmax (PO (3.1 mg/kg)): 4.6 µM; half-life (PO (3.1 mg/kg)): 6.8 h; F (PO (3.1 mg/kg)): F = 38%
8.8 µM,7.3 h,,,"COc1cc2nccc(Oc3ccc(NC(=O)C4(C(=O)Nc5ccc(F)cc5)CC4)cc3)c2cc1C(N)=O [Compound 7, 1-N-[4-(6-carbamoyl-7-methoxyquinolin-4-yl)oxyphenyl]-1-N′-(4-fluorophenyl)cyclopropane-1,1-dicarboxamide]",clearance (IV (1 mg/kg)): 1.48 mL/min/kg; half-life (IV (1 mg/kg)): 3.1 h
0.7 µM,2.9 h,8.52 mL/min/kg,2.1 h,"COc1cc2nccc(Oc3ccc(NC(=O)C4(C(=O)Nc5ccc(F)cc5)CC4)cc3)c2cc1S(N)(=O)=O [Compound 206, 1-N′-(4-Fluorophenyl)-1-N-[4-(7-methoxy-6-sulfamoylquinolin-4-yl)oxyphenyl]cyclopropane-1,1-dicarboxamide]",F (PO (3 mg/kg)): F = 37%
15.3 µM,5.7 h,,,"COc1cc2nccc(Oc3ccc(NC(=O)C4(C(=O)Nc5ccc(F)cc5)CC4)cc3)c2cc1-c1ncco1 [Compound 45, 1-N′-(4-fluorophenyl)-1-N-[4-[7-methoxy-6-(1,3-oxazol-2-yl)quinolin-4-yl]oxyphenyl]cyclopropane-1,1-dicarboxamide]",clearance (IV (1 mg/kg)): 0.683 mL/min/kg; half-life (IV (1 mg/kg)): 10.1 h
11.4 µM,7.1 h,0.717 mL/min/kg,5.4 h,"CNC(=O)c1cc2c(Oc3ccc(NC(=O)C4(C(=O)Nc5ccc(F)cc5)CC4)cc3)ccnc2cc1OC [Compound 8, 1-N′-(4-fluorophenyl)-1-N-[4-[7-methoxy-6-(methylcarbamoyl)quinolin-4-yl]oxyphenyl]cyclopropane-1,1-dicarboxamide]",
3.9 µM,2.6 h,2.53 mL/min/kg,2.8 h,"CCNC(=O)c1cc2c(Oc3ccc(NC(=O)C4(C(=O)Nc5ccc(F)cc5)CC4)cc3)ccnc2cc1OC [Compound 9, 1-N-[4-[6-(ethylcarbamoyl)-7-methoxyquinolin-4-yl]oxyphenyl]-1-N′-(4-fluorophenyl)cyclopropane-1,1-dicarboxamide]",F (PO (3 mg/kg)): F = 69%
,,,,"CONC(=O)c1cc2c(Oc3ccc(NC(=O)C4(C(=O)Nc5ccc(F)cc5)CC4)cc3)ccnc2cc1OC [Compound 17, 1-N′-(4-fluorophenyl)-1-N-[4-[7-methoxy-6-(methoxycarbamoyl)quinolin-4-yl]oxyphenyl]cyclopropane-1,1-dicarboxamide]",clearance (IV (3.0 mg/kg)): 1.7 mL/min/kg; half-life (IV (3.0 mg/kg)): 3 h; Cmax (PO (3.2 mg/kg)): 3.4 µM; half-life (PO (3.2 mg/kg)): 4.5 h; F (PO (3.2 mg/kg)): F = 46%
